The subject of test [1] is insomnia, anxiety or agitation. As to the kind of experiment: Single-patient therapy Examples 1-10 (insomnia, anxiety, agitation). It counts as in vivo, human. On the procedure:
A person presents as suffering from maintenance insomnia for one year. They are started on oral A2-73 at 10 mg/day. […] They are currently maintained on 10 mg of A2-73 and is sleeping well. A person presents with anxiety of three years' duration. They are administered A2-73 at 20 mg oral per day every other day. […] They are maintained on this dosing schedule for 60 days. […] They are treated with 30 mg A2-73 oral daily for 30 days. […] They are currently maintained at that dosage and is not anxious. A person presents with MCI and reports maintenance insomnia for one year. They are started on oral A1-41 at 10 mg/day. […] They are currently maintained on 10 mg of A1-41 and is sleeping well. The patient is a person with diagnosed AD and reported anxiety of three years' duration. They are administered A19-144 at 20 mg oral per day every day for 90 days. […] They are chronically maintained on this dosing schedule. A person diagnosed with mild cognitive impairment presents as suffering from maintenance insomnia for one year. They are started on oral A2-73 at 50 mg/day. […] They are currently maintained on 50 mg of A2-73 daily and is sleeping well. A person diagnosed with Alzheimer's disease presents with insomnia/WASO and agitation and a systolic blood pressure of 145 mm Hg. They are started on oral A2-73 at 30 mg/day. […] They are also less agitated. Their results on all cognitive tests and HAM-D improve. They are currently maintained on 30 mg of A2-73 daily. A person diagnosed with Alzheimer's disease presents with insomnia/WASO and agitation. They are started on oral A2-73 at 100 mg/day. […] They are also less agitated. Their results on all cognitive tests and HAM-D improve. They are currently maintained on 100 mg of A2-73 every other day. A person diagnosed with Alzheimer's disease presents with insomnia/WASO and agitation. They are started on oral A19-144 at 50 mg/day. […] They are also less agitated. Their results on all cognitive tests and HAM-D improve. They are currently maintained on 50 mg of A19-144 daily. A person diagnosed with Alzheimer's disease presents with insomnia/WASO and agitation. They are started on oral A1-41 at 30 mg/day. […] They are also less agitated. Their results on all cognitive tests and HAM-D improve. They are currently maintained on 30 mg of A1-41 daily.

Another test addresses sigma-1 receptors (Homo sapiens, UniProt Q99720). The note with it: 'is believed to bind'; cited from earlier work.
Test [2] relates to muscarinic acetylcholine receptors. The conditions noted are these: 'is believed to bind'; cited from earlier work.
Setting [3] is: Example 10: oral 30 mg/day, 60 days.
Setting [4] is: Example 9: oral 50 mg/day, 30 days.

Sequence of sigma-1 receptors (Q99720 whole entry): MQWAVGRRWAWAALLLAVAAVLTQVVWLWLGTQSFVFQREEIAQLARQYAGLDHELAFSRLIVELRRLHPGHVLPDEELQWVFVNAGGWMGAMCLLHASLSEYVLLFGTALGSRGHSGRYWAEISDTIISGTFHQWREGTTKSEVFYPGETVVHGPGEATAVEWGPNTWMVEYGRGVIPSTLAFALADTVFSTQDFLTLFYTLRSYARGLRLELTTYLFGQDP

On to `CN(C)CC1COC(c2ccccc2)(c2ccccc2)C1.Cl` (stereo not shown) [A1-41, tetrahydro-N,N-dimethyl-5,5-diphenyl-3-furanmethanamine hydrochloride], for which, in test [1] (Example 4: person with MCI, oral 10 mg/day, 30 days), the “Sleep at follow up (maintenance insomnia)” value was “sleeping well”. Moreover, in test [1] (setting [3]), the “Agitation at follow up” value was “less agitated”; the “Results on all cognitive tests and HAM-D” value is “improve”. Besides, the “Sleep at follow up (insomnia/WASO)” value in test [1] (Example 10: person with AD, oral 30 mg/day, 60 days) is given as “sleeping well through the night”.

As to `CNCC1CCOC1(c1ccccc1)c1ccccc1.Cl` (stereo not shown) [A19-144, 1-(2,2-diphenyltetrahydrofuran-3-yl)-N-methylmethanamine hydrochloride], the “Affinity for sigma-1 receptors” value at sigma-1 receptors is “low micromolar range”. Moreover, the Anxiety entry in test [1] (Example 5: person with AD, 20 mg oral every day, after two days of dosing) was “Resolution of the anxiety”. In test [1] (setting [4]), the “Agitation at follow up” value is “less agitated”; the “Results on all cognitive tests and HAM-D” value is listed as “improve”. Moreover, the “Sleep at follow up (insomnia/WASO)” value in test [1] (Example 9: person with AD, oral 50 mg/day, 30 days) is recorded as “sleeping well through the night”. The “Affinity for muscarinic acetylcholine receptors” value in test [2] is reported as “low micromolar range”.

Source of the values: patent publication US12285403B2, “A2-73 as a therapeutic for insomnia, anxiety and agitation” (Anavex Life Sciences Corp., priority 2016, dated 2025).
